How the values were obtained:
let-7 miRNA = assay: miRNA PCR of let-7 family in CD34+ cord blood cells co-transduced with lenti-JAK2 and lenti-BCR-ABL on SL/M2 stromal cultures; format: cell-based, human
Experimental: Human specific RPL27 primers were used as housekeeping control. MicroRNA extraction was performed using the RNeasy Micro Kit (Qiagen) according to the manufacturer's instructions. Then 30 ng of cDNA was prepared in a reverse transcription reaction using miScript RTII™ kit (Qiagen) and served as a template for the quantification of the expression of mature miRNA of interest. Also, qRT-PCR was performed using miRNA human-specific primers and SYBR Green Kit (Qiagen). MiScript™ primers, RNU6_2 (Qiagen), were used as housekeeping control.

ADAR1 = biological target: T1, ADAR1 (Homo sapiens, UniProt P55265); assay: RESSqPCR RNA editing ratio of APOBEC3D in K562 cells transduced with ADAR1 WT or ADAR1 E912A mutant; format: cell-based; conditions: K562 leukemic cell line, lentiviral ADAR1 WT or ADAR1 E912A
T1 construct: Full-length human adenosine deaminase, RNA-specific (ADAR1), transcript variant 1; T2A-GFP cassette of the vector pCDH-EF1-T2A-GFP (self-cleaving 2A; any remnant on ADAR1 not described); expressed in transfected cells; host or cells: K562 leukemia cells, lentiviral transduction (pCDH backbone)
T1 sequence (P55265 1-1226): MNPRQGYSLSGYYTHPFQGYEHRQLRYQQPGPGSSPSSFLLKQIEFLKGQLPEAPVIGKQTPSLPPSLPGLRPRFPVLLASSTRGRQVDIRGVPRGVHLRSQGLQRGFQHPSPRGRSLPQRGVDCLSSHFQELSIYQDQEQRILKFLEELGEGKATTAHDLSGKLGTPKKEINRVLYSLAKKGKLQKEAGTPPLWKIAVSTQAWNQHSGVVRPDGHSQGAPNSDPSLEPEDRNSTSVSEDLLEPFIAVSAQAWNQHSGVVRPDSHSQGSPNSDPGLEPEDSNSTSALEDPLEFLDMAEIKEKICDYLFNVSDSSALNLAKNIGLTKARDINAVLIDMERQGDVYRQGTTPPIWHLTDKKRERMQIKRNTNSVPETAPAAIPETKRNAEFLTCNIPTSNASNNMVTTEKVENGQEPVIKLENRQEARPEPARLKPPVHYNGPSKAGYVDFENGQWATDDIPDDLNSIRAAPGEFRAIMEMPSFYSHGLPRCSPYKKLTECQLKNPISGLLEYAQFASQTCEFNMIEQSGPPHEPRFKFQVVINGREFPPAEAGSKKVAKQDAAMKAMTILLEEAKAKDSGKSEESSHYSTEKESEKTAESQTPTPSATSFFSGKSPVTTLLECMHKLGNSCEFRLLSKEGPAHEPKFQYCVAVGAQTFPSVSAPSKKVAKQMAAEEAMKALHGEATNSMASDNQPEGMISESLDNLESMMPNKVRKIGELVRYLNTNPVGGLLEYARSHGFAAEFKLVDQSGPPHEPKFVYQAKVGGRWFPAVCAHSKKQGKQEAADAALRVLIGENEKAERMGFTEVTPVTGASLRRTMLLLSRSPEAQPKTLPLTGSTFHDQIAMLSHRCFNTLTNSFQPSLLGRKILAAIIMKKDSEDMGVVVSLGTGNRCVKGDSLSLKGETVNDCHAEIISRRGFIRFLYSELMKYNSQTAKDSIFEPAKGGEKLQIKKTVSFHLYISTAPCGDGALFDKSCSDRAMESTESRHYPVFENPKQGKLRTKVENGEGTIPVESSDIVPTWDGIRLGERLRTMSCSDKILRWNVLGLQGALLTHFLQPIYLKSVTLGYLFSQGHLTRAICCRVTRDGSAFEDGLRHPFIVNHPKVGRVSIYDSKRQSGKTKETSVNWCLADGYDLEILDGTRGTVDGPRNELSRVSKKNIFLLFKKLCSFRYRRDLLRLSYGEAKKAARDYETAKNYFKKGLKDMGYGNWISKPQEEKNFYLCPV
Excerpt: FIG. 5b graphically illustrates data of a RNA editing ratio of APOBEC3D by RESSqPCR in K562 leukemia cells transduced with ADAR1 WT and ADAR1E912A mutant following 8-aza treatment (n=3). The values are normalized to the editing ratio observed in pCDH control cells.
As previously described (Yildirim et al., 2013), for each RNA editing site, two sets of primers were used: one pair detecting the WT transcript (an “A” base), and one pair detecting the edited transcript containing a “G” base representing inosine substitution. The forward (FW) outer and reverse (REV) outer primers flank the editing site and can be used for Sanger sequencing validation of each editing site, and also as a qRTPCR positive control to ensure that the editing region is detectable in cDNA. The 3′ ends of the FW inner and REV inner primers match either the WT A or edited G nucleotide, and an additional mismatch was incorporated two nucleotides upstream of the 3′ primer end to enhance allelic discrimination, as previously described for quantitative detection of transcripts harboring single nucleotide genomic mutations. RESSqPCR was performed as recently described (Yildirim et al., 2013) using highly validated RNA editing site specific primers for APOBEC3D. […] Relative RNA editing rates (Relative edit/WT RNA) were calculated using the following calculation: 2^-(Ct Edit-Ct WT).

[1] = system: BCR-ABL and JAK2 signaling; assay: qRT-PCR of BCR-ABL and JAK2 mRNA and p-CRKL, p-STAT5a Western blot in K562 cells; format: cell-based, human; conditions: 8-aza at increasing concentrations
Excerpt: FIG. 14(a) graphically illustrates a RT-qPCR analysis of BCR-ABL and JAK2 mRNA in K562 cells transduced with pCDH vector control, lenti-ADAR1 WT, and lenti-ADAR1 mutant treated with 8-aza at increasing concentrations (n=3). FIG. 14(b) illustrates a Quantification of p-STAT5, p-CRKL, and β-actin protein expression in K562 cells transduced with pCDH vector control, lenti-ADAR1 WT, and lenti-ADAR1 mutant treated with 8-aza at increasing concentrations (n=3).

RNA editing of APOBEC3D = assay: RESSqPCR RNA editing ratio of APOBEC3D in CD34+ cord blood cells co-transduced with lenti-JAK2 and lenti-BCR-ABL; format: cell-based, human; conditions: JAK2/BCR-ABL1 transduced progenitors, two weeks SL/M2 stromal co-culture; 8-Aza 10-25 nM, SAR302503 100 nM
LIN28B = LIN28B expression in CD34+ cord blood cells co-transduced with lenti-JAK2 and lenti-BCR-ABL; format: cell-based, human; conditions: JAK2/BCR-ABL1 transduced progenitors, two weeks SL/M2 stromal co-culture; 8-Aza 10-25 nM, SAR302503 100 nM
[2] = system: normal CD34+ hematopoietic progenitors; assay: Secondary colony replating of normal CD34+ progenitors after SL/M2 stromal co-culture; format: cell-based, human; conditions: SL/M2 stromal co-cultures; 8-Aza 10-25 nM, SAR302503 100 nM
Experimental: FIG. 5h graphically illustrates data of a percentage of secondary colonies formed after replating primary colonies from normal bone marrow or BC CD34. cells treated with different dose of 8-aza (n=3).
FIG. 5i graphically illustrates data of a percentage of secondary colonies formed after replating primary colonies from normal bone marrow or BC CML following treatment.
H5100™ media (StemCell Technologies) along with different treatment. After 2 week of culture human cells were plated, in triplicate, in Methocult™ media (StemCell Technologies) for colony-forming and replating assays.
Following lentiviral transduction or in vitro culture with SL/M2 stroma, human cells were harvested, counted by trypan blue exclusion and 100-200 cells were plated per well of a 12-well plate in Methocultmedia. After 2 weeks, total colonies were counted and replated for secondary colony-formation assay.

ADAR1 isoforms (p150) = assay: qRT-PCR of ADAR1 expression in CD34+ cord blood cells co-transduced with lenti-JAK2 and lenti-BCR-ABL on SL/M2 stromal cultures; conditions: for ADAR1 expression: JAK2/BCR-ABL1 transduced progenitors, two weeks SL/M2 stromal co-culture, 8-Aza 10-25 nM, SAR302503 100 nM
[3] = system: ADAR-mediated A-to-I editing activity in K562 leukemia cells co-transduced with lenti-ADAR1 and lenti-JAK2; assay: Dual luciferase reporter assay of ADAR-specific RNA editing activity in K562 cells; format: cell-based, human; conditions: SAR302503 100 nM or 300 nM, 3 hrs
[4] = JAK2/BCR-ABL1 transduced progenitors, two weeks SL/M2 stromal co-culture, 8-Aza 10-25 nM, SAR302503 100 nM
[5] = JAK2/BCR-ABL1 transduced normal CD34+ progenitors, SAR302503 100 nM and 600 nM on SL/M2 stromal cultures

SMILES | let-7 miRNA biogenesis (let-7 miRNA; [4]) | ADAR1's adenosine-to-inosine (A-to-I) editing activity (ADAR1) | effect on BCR-ABL and JAK2 signaling (qRT-PCR, p-CRKL and p-STAT5a Western blot) [1] | RNA editing activity (APOBEC3D RESSqPCR) (RNA editing of APOBEC3D) | LIN28B expression (LIN28B) | self renewal capacity of normal CD34+ hematopoietic progenitors [2] | ADAR1 expression (ADAR1 isoforms (p150)) | RNA editing activity (luciferase reporter) [3] | let-7 miRNA biogenesis (let-7 miRNA; [5]) | ADAR1 p150 isoform expression (ADAR1 isoforms (p150); [5])
Nc1ncnc2c1nnn2[C@@H]1O[C@H](CO)[C@@H](O)[C@H]1O [8-aza, 8-azaadenosine] | restored let-7 miRNA biogenesis | reduced ADAR1's adenosine-to-inosine (A-to-I) editing activity | no effect on BCR-ABL and JAK2 signaling | reduction | reduction | not significantly impaired | reduction in ADAR1 expression |  |  | 
Cc1cnc(Nc2ccc(OCCN3CCCC3)cc2)nc1Nc1cccc(S(=O)(=O)NC(C)(C)C)c1 [SAR302503, N-tert-Butyl-3-{5-methyl-2-[4-(2-pyrrolidin-1-yl-ethoxy)-phenylamino]-pyrimidin-4-ylamino}-benzenesulfonamide] | restored let-7 miRNA biogenesis |  |  | reduction | reduction |  | reduction in ADAR1 expression | reversed RNA editing activity in a dose dependent manner | restored let-7 miRNA biogenesis in a dose-dependent manner | reduced ADAR1 p150 isoform expression

From patent US20240165145A1, “COMPOSITIONS AND METHODS FOR TREATING CANCER AND BIOMARKERS TO DETECT CANCER STEM CELL REPROGRAMMING AND PROGRESSION” (The Regents of the University of California, priority 2016, published 2024)
